The record followed here is PMC5908784, “Extracellular loops 2 and 3 of the calcitonin receptor selectively modify agonist binding and efficacy” (Biochemical Pharmacology, 2018).

Each structure is given as a SMILES string. Where a chain is given by its changes, count along the chain named. Where a SMILES comes first, the peptide text is derived from it. Bridges are numbered along the chain shown (N, C = ends).

Common to all, as to experiment: cAMP accumulation
What all share (assay type): cell-based

One test has as its target T1, hCTR G369A (Homo sapiens, UniProt P30988, G369A).
T1 construct: c-Myc (N); expressed in transfected cells
T1 sequence (P30988 25-474 G369A): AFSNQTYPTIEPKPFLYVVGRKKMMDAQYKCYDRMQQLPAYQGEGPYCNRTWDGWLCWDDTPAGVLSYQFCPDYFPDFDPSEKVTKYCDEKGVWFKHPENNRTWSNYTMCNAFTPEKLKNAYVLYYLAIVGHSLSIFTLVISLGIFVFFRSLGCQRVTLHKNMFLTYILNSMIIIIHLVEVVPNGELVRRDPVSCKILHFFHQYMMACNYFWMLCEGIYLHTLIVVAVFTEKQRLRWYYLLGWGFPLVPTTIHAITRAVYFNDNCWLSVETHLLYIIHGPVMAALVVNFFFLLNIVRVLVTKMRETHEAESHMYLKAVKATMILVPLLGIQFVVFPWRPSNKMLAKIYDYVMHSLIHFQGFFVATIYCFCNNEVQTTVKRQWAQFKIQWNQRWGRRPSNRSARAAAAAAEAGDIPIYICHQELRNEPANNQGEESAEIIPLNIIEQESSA
The following applies: mean ± S.E.M.; for Emax: cAMP maximal response, SEM; for EC50: cAMP, CV1-FlpIn cells, 30 min, IBMX. Summed up:
(§1)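 Plated cells were incubated overnight and then challenged with rising ligand concentrations for 30 min alongside IBMX. Medium was replaced by absolute ethanol, which was evaporated at room temperature before cAMP determination. Values are normalized to 100 μM forskolin.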

In a further test the target is T2, hCTR W290A (Homo sapiens, UniProt P30988, W290A).
T2 construct: c-Myc (N); expressed in transfected cells
T2 sequence (P30988 25-474 W290A): T1 sequence (P30988 25-474 G369A) with W266A, A345G
The settings on record: mean ± S.E.M.; for Emax: cAMP maximal response, SEM. The gist of the method:
as §1

The next test addresses T3, hCTR WT (Homo sapiens, UniProt P30988).
T3 construct: expressed in transfected cells
T3 sequence (P30988 25-474): T1 sequence (P30988 25-474 G369A) with A345G
The following applies: mean ± S.E.M.; for Emax: cAMP maximal response, SEM; for EC50: cAMP, CV1-FlpIn cells, 30 min, IBMX. Summed up: as §1

The next test has as its target T4, hCTR E294A (Homo sapiens, UniProt P30988, E294A).
T4 construct: c-Myc (N); expressed in transfected cells
T4 sequence (P30988 25-474 E294A): T1 sequence (P30988 25-474 G369A) with E270A, A345G
The settings on record: mean ± S.E.M.; for Emax: cAMP maximal response, SEM; for EC50: cAMP, CV1-FlpIn cells, 30 min, IBMX. The gist of the method:
as §1

A further test addresses T5, hCTR N286A (Homo sapiens, UniProt P30988, N286A).
T5 construct: c-Myc (N); expressed in transfected cells
T5 sequence (P30988 25-474 N286A): T1 sequence (P30988 25-474 G369A) with N262A, A345G
The settings on record: mean ± S.E.M.; for Emax: cAMP maximal response, SEM; for EC50: cAMP, CV1-FlpIn cells, 30 min, IBMX. Summed up:
as §1

One may read the Emax as the greatest response seen or fitted, relative to the assay's reference. As to `CC[C@H](C)[C@H](NC(=O)[C@H](C)NC(=O)[C@@H](NC(=O)[C@H](CCC(N)=O)NC(=O)[C@@H]1CCCN1C(=O)[C@H](Cc1ccccc1)NC(=O)[C@@H](NC(=O)[C@H](Cc1c[nH]cn1)NC(=O)[C@H](Cc1ccccc1)NC(=O)[C@H](CCCCN)NC(=O)[C@H](CC(N)=O)NC(=O)[C@H](Cc1ccccc1)NC(=O)[C@H](CC(=O)O)NC(=O)[C@H](CCC(N)=O)NC(=O)[C@@H](NC(=O)[C@H](Cc1ccc(O)cc1)NC(=O)[C@@H](NC(=O)CNC(=O)[C@H](CC(C)C)NC(=O)[C@H](CCSC)NC(=O)[C@@H]1CSSC[C@H](N)C(=O)NCC(=O)N[C@@H](CC(N)=O)C(=O)N[C@@H](CC(C)C)C(=O)N[C@@H](CO)C(=O)N[C@@H]([C@@H](C)O)C(=O)N1)[C@@H](C)O)[C@@H](C)O)[C@@H](C)O)[C@@H](C)O)C(=O)NCC(=O)N[C@H](C(=O)NCC(=O)N[C@@H](C)C(=O)N1CCC[C@H]1C(N)=O)C(C)C` [hCT], the Emax at hCTR G369A was found to be 129 ± 9%; at hCTR W290A it was 164 ± 20%; on hCTR WT it was 100 ± 2%; at hCTR E294A, 105 ± 5%; on hCTR N286A, 126 ± 6%.

What is called EC50 is the midpoint of the concentration-response curve. The low end stands for an effect from little substance, the high end for a need for much substance. With `CC(C)C[C@H](NC(=O)CNC(=O)[C@H](C)NC(=O)[C@H](CC(C)C)NC(=O)[C@H](CCCNC(=N)N)NC(=O)[C@H](Cc1cnc[nH]1)NC(=O)[C@@H](NC(=O)[C@@H](NC(=O)[C@@H]1CSSC[C@H](NC(=O)[C@H](C)N)C(=O)N[C@@H](CC(=O)O)C(=O)N[C@@H]([C@@H](C)O)C(=O)N[C@@H](C)C(=O)N[C@@H]([C@@H](C)O)C(=O)N1)C(C)C)[C@@H](C)O)C(=O)N[C@@H](CC(C)C)C(=O)N[C@@H](CO)C(=O)N[C@@H](CCCNC(=N)N)C(=O)N[C@@H](CO)C(=O)NCC(=O)NCC(=O)N[C@H](C(=O)N[C@H](C(=O)N[C@@H](CCCCN)C(=O)N[C@@H](CC(N)=O)C(=O)N[C@@H](CC(N)=O)C(=O)N[C@@H](Cc1ccccc1)C(=O)N[C@H](C(=O)N1CCC[C@H]1C(=O)N[C@H](C(=O)N[C@@H](CC(N)=O)C(=O)N[C@H](C(=O)NCC(=O)N[C@@H](CO)C(=O)N[C@@H](CCCCN)C(=O)N[C@@H](C)C(=O)N[C@@H](Cc1ccccc1)C(N)=O)C(C)C)[C@@H](C)O)C(C)C)C(C)C)C(C)C` [hαCGRP], the Emax on hCTR G369A was found to be 131 ± 20%; at hCTR WT, 100 ± 7%; on hCTR E294A, 137 ± 31%; on hCTR N286A it was 46 ± 16%. Besides, the EC50 is 24.5 nM on hCTR G369A, 11 nM on hCTR WT, 49 nM at hCTR E294A and 14.1 nM at hCTR N286A.

As to `CSCC[C@H](NC(=O)CNC(=O)[C@H](CO)NC(=O)[C@H](Cc1ccccc1)NC(=O)[C@H](CCCNC(=N)N)NC(=O)[C@H](Cc1c[nH]cn1)NC(=O)[C@H](Cc1ccccc1)NC(=O)[C@H](CC(N)=O)NC(=O)[C@H](CC(N)=O)NC(=O)[C@H](CC(C)C)NC(=O)[C@H](CC(N)=O)NC(=O)[C@H](CCCNC(=N)N)NC(=O)[C@H](Cc1c[nH]c2ccccc12)NC(=O)[C@H](Cc1ccc(O)cc1)NC(=O)[C@H](C)NC(=O)[C@H](CO)NC(=O)[C@H](CC(C)C)NC(=O)[C@@H](NC(=O)[C@@H]1CSSC[C@H](N)C(=O)N[C@@H](CO)C(=O)N[C@@H](CC(N)=O)C(=O)N[C@@H](CC(C)C)C(=O)N[C@@H](CO)C(=O)N[C@@H]([C@@H](C)O)C(=O)N1)C(C)C)C(=O)NCC(=O)N[C@@H](Cc1ccccc1)C(=O)NCC(=O)N1CCC[C@H]1C(=O)N[C@@H](CCC(=O)O)C(=O)N[C@H](C(=O)N1CCC[C@H]1C(N)=O)[C@@H](C)O` [pCT] (H-CSNLSTCVLSAYWRNLNNFHRFSGMGFGPETP-NH2; disulfide 1-7), the Emax at hCTR G369A amounted to 89 ± 7%; at hCTR W290A, 113 ± 12%; on hCTR WT, 100 ± 2%; on hCTR E294A, 105 ± 6%; on hCTR N286A it was 84 ± 6%. Moreover, the EC50 on hCTR G369A was 0.204 nM; at hCTR W290A (cAMP, CV1-FlpIn cells, 30 min, IBMX), 3.31 nM; at hCTR WT, 0.0398 nM; on hCTR E294A it was 0.0398 nM; on hCTR N286A, 0.2 nM.

For `CC(C)C[C@H](NC(=O)[C@H](CC(N)=O)NC(=O)[C@H](CC(N)=O)NC(=O)[C@H](CO)NC(=O)[C@H](CO)NC(=O)[C@H](CCCNC(=N)N)NC(=O)[C@@H](NC(=O)[C@H](CC(C)C)NC(=O)[C@H](Cc1ccccc1)NC(=O)[C@H](CC(N)=O)NC(=O)[C@H](C)NC(=O)[C@H](CC(C)C)NC(=O)[C@H](CCCNC(=N)N)NC(=O)[C@H](CCC(N)=O)NC(=O)[C@@H](NC(=O)[C@H](C)NC(=O)[C@@H]1CSSC[C@H](NC(=O)[C@@H](N)CCCCN)C(=O)N[C@@H](CC(N)=O)C(=O)N[C@@H]([C@@H](C)O)C(=O)N[C@@H](C)C(=O)N[C@@H]([C@@H](C)O)C(=O)N1)[C@@H](C)O)C(C)C)C(=O)NCC(=O)N1CCC[C@H]1C(=O)N[C@H](C(=O)N[C@@H](CC(C)C)C(=O)N1CCC[C@H]1C(=O)N1CCC[C@H]1C(=O)N[C@H](C(=O)N[C@@H](CC(N)=O)C(=O)N[C@H](C(=O)NCC(=O)N[C@@H](CO)C(=O)N[C@@H](CC(N)=O)C(=O)N[C@H](C(=O)N[C@@H](Cc1ccc(O)cc1)C(N)=O)[C@@H](C)O)C(C)C)[C@@H](C)O)C(C)C` [rAmy], the Emax at hCTR G369A worked out at 78 ± 6%; on hCTR W290A, 72 ± 26%; at hCTR WT, 100 ± 4%; at hCTR E294A it was 90 ± 9%; on hCTR N286A it was 97 ± 15%.

As to `CC(C)C[C@H](NC(=O)[C@H](CCCCN)NC(=O)CNC(=O)[C@H](CC(C)C)NC(=O)[C@@H](NC(=O)[C@@H]1CSSC[C@H](N)C(=O)N[C@@H](CO)C(=O)N[C@@H](CC(N)=O)C(=O)N[C@@H](CC(C)C)C(=O)N[C@@H](CO)C(=O)N[C@@H]([C@@H](C)O)C(=O)N1)C(C)C)C(=O)N[C@@H](CO)C(=O)N[C@@H](CCC(N)=O)C(=O)N[C@@H](CCC(=O)O)C(=O)N[C@@H](CC(C)C)C(=O)N[C@@H](Cc1c[nH]cn1)C(=O)N[C@@H](CCCCN)C(=O)N[C@@H](CC(C)C)C(=O)N[C@@H](CCC(N)=O)C(=O)N[C@H](C(=O)N[C@@H](Cc1ccc(O)cc1)C(=O)N1CCC[C@H]1C(=O)N[C@@H](CCCNC(=N)N)C(=O)N[C@H](C(=O)N[C@@H](CC(N)=O)C(=O)N[C@H](C(=O)NCC(=O)N[C@@H](CO)C(=O)NCC(=O)N[C@H](C(=O)N1CCC[C@H]1C(N)=O)[C@@H](C)O)[C@@H](C)O)[C@@H](C)O)[C@@H](C)O` [sCT], the Emax at hCTR G369A is 106 ± 8%; on hCTR W290A, 154 ± 7%; on hCTR WT, 100 ± 1%; on hCTR E294A it was 98 ± 9%; at hCTR N286A it was 103 ± 6%.
